Reference: patent US20210145801A1, “THERAPY FOR PROTEIN MISFOLDING DISEASE” (WREN THERAPEUTICS LIMITED, priority 2018, published 2021)
Entries after “also recorded” stand apart in the source; their conditions may differ.

Assays:
AD worms (GMC101) = test: Automated motility assay (WF-NTP) in AD worms; format: in vivo, C. elegans
Procedure: Standard conditions were used for the propagation of C. elegans (S. Brenner, The genetics of Caenorhabditis elegans. Genetics. 77, 71-94 (1974)). Briefly, the animals were synchronized by hypochlorite bleaching, hatched overnight in M9 buffer (3 g/l KH2PO4, 6 g/l Na2HPO4, 5 g/l NaCl, […]), and subsequently cultured at 20° C. on nematode growth medium (NGM) (CaCl2) 1 mM, MgSO4 1 mM, cholesterol 5 μg/mL, PBS Buffer (250 μM KH2PO4, 67.5 μM KCl, 3.425 mM of NaCl, pH 6), Agar 17 g/L, NaCl 3 g/1, casein 7.5 g/l) plates seeded with the E. coli strain OP50. Saturated cultures of OP50 were grown by inoculating 50 ml of LB medium (tryptone 10 g/l, NaCl 10 g/1, yeast extract 5 g/l) with OP50 and incubating the culture for 16 h at 37° C. NGM plates were seeded with bacteria by adding 350 μl of saturated OP50 to each plate and leaving the plates at 20° C. for 2-3 days. On day 3 after synchronisation, the animals were placed on NGM plates containing 5-fluoro-2′deoxy-uridine (FUDR) (75 μM, unless stated otherwise) to inhibit the growth of offspring.
GMC101 dvIs100 [unc-54p::A-beta-1-42::unc-54 3′UTR+mtl-2p::GFP]. mtl-2p::GFP produces constitutive expression of GFP in intestinal cells. unc-54p::A-beta-1-42 expresses full-length human Aβ42 peptide in body wall muscle cells that aggregates in vivo. […]
All C. elegans populations were cultured at 20° C. and developmentally synchronized from a 4 h egg-lay. At 64-72 h post-egg-lay (time zero), individuals were transferred to FUDR plates, and body movements were assessed over the times indicated. At different ages, the animals were washed off the plates with M9 buffer and spread over an OP-50 unseeded 9 cm plate, after which their movements were recorded at 20 fps using a recently developed microscopic procedure (M. Perni et al., Massively parallel C. elegans tracking provides multi-dimensional fingerprints for phenotypic discovery. J. Neurosci. Methods. 306, 57-67 (2018)) for 1 min. Up to 600 animals were counted in each experiment in duplicate unless stated otherwise. One experiment that is representative of the three or more measured in each series of experiments is shown, and videos were analysed using a custom-made tracking code (M. Perni et al., Massively parallel C. elegans tracking provides multi-dimensional fingerprints for phenotypic discovery. J. Neurosci. Methods. 306, 57-67 (2018)).
In order to screen for the effect of therapeutics in the most robust way, a wide field-of-view nematode-tracking platform (WF-NTP) was used, which enables the simultaneous investigation of multiple phenotypic readouts on large worm populations. The WF-NTP monitors up 5000 animals in parallel, and the phenotypical readout includes multiple parallel parameters.

Aβ42 fibrils = target: T1, Aβ42 fibrils (Homo sapiens, UniProt P05067); test: Dot blot assay with fibril-specific OC antibody; format: biochemical; conditions: 2 μM Aβ42; 5-fold excess of compound; eight time points
T1 construct: made in house; host or cells: E. coli BL21 Gold (DE3)
T1 sequence (P05067 671-713): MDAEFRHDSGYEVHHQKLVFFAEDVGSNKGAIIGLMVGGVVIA
Procedure: Blotting was performed using Aβ42 fibril-specific antibody (OC, Millipore). During the time course of the aggregation of a 2 μM Aβ42 in the absence and in the presence of 5-fold excess of Netoglitazone, 4 μL Aβ42 aliquots were removed from the mixture at different time points for blotting with OC. Aβ42 aliquots were spotted onto a nitrocellulose membrane (0.2 μm, Whatman) and then the membranes were dried and then blocked with Blocking One (Nacalai tesque) before immuno-detection. OC was used according to the manufacturer's instructions. Alexa Fluor® 488-conjugated secondary antibodies (Life technologies) were subsequently added and fluorescence detection was performed using Typhoon Trio Imager (GE Healthcare).

[1] = administered at D3, read at D5 of adulthood

O=C1NC(=O)C(Cc2ccc3cc(OCc4ccccc4F)ccc3c2)S1 (centres unmarked) [Netoglitazone]
Motility of AD worms after late administration (AD worms (GMC101); [1]): increase of the worm's mobility; also recorded: improves motility
Survival rate of AD worms after late administration (AD worms (GMC101); [1]): increase of the worm's mobility and survival rate; also recorded: improves motility (i) and survival rates
Recovery of dysfunctional phenotype / mobility of AD worms (AD worms (GMC101); administered at L4, 0.05-10 μM): dose dependent and statistically significant recovery in the dysfunctional phenotype
Concentration range of best/maximum protective effect on mobility (AD worms (GMC101); administered at L4, D3 of adulthood): 0.5 to 5 µM
Delay of Aβ42 fibril formation in dot-blot assay (Aβ42 fibrils): identical within experimental error to that observed in the ThT-based assay
